How the values were obtained:
[1] = molecular target: Aldo-keto reductase family 1 member B1 (Rattus norvegicus, UniProt P07943); type: tissue-based, Lens of camera-type eye;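 further: inhibition of aldose reductase enzyme activity, measured with DL-glyceraldehyde as the substrate; in other assays of this panel Not Active means under 50% inhibition at 10 µM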
[2] = molecular target: Cannabinoid receptor 1 (Homo sapiens, UniProt P21554); type: cell membranes, Membrane; settings: chem-1; further: in other assays of this panel Not Active means under 50% inhibition at 10 µM
Chain of Cannabinoid receptor 1 (P21554 whole entry): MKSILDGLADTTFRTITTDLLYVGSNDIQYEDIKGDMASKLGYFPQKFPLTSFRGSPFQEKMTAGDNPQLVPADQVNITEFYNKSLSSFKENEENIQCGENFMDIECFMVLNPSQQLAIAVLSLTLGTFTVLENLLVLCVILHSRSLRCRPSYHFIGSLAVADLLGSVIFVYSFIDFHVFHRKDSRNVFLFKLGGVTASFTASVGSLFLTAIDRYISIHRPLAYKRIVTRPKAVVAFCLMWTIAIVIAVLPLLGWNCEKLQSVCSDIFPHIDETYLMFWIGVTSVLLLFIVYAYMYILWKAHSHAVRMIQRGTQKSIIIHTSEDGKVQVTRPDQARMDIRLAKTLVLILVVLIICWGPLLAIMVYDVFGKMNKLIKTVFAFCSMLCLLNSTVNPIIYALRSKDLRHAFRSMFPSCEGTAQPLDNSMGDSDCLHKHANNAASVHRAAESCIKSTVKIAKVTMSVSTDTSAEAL

[3] = molecular target: T1, Substance-K receptor (Homo sapiens, UniProt P21452); type: cell membranes, CHO, Membrane; settings: cho; further: in other assays of this panel Not Active means under 50% inhibition at 10 µM
T1 sequence (P21452 whole entry): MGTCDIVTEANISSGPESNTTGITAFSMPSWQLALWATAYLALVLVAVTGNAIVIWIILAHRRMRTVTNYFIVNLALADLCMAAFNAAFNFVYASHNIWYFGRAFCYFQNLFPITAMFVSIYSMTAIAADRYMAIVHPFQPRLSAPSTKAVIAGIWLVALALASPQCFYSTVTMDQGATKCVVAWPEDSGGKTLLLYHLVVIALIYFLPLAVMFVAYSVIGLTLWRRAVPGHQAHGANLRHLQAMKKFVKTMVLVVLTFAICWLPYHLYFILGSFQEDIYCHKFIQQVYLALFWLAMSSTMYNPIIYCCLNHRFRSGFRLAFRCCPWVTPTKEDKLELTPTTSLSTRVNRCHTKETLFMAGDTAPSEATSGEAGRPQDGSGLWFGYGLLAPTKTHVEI

[4] = molecular target: Protein phosphatase 3 catalytic subunit alpha (Homo sapiens, UniProt Q08209); design: species or system Escherichia coli;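 further: inhibition of calcineurin (PP2B) enzyme activity, measured with DiFMUP as the substrate; in other assays of this panel Not Active means under 50% inhibition at 10 µM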
[5] = DRUGMATRIX: Tumor Necrosis Factor (TNF), Non-Selective radioligand binding (ligand: [125I] TNF-alpha); type: cell membranes, Membrane; settings: u-937; Not Active = under 50% inhibition at 10 µM
[6] = molecular target: Melanocortin receptor 4 (Homo sapiens, UniProt P32245); type: cell membranes, Membrane; settings: hek293; further: in other assays of this panel Not Active means under 50% inhibition at 10 µM
Chain of Melanocortin receptor 4 (P32245 whole entry): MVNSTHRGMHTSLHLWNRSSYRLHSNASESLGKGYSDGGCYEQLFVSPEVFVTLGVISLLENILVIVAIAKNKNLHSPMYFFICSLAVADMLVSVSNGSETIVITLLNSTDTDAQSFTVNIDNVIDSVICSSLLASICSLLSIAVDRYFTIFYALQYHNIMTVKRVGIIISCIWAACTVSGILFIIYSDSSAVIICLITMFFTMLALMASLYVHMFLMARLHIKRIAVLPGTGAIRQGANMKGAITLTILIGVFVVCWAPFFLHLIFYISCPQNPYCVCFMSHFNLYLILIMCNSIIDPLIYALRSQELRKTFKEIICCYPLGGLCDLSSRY

[7] = DRUGMATRIX: Potassium Channel [KATP] radioligand binding (ligand: [3H] Glyburide); type: cell membranes, Membrane; settings: hit-t15; Not Active = under 50% inhibition at 10 µM
[8] = DRUGMATRIX: ATPase, Na+/K+ enzyme inhibition (substrate: ATP); type: tissue-based, Sus scrofa, Heart; settings: Not Active = under 50% inhibition at 10 µM
[9] = molecular target: T2, Neuropeptide Y receptor type 2 (Homo sapiens, UniProt P49146); type: cell membranes, Membrane; settings: kan-ts; further: in other assays of this panel Not Active means under 50% inhibition at 10 µM
T2 sequence (P49146 whole entry): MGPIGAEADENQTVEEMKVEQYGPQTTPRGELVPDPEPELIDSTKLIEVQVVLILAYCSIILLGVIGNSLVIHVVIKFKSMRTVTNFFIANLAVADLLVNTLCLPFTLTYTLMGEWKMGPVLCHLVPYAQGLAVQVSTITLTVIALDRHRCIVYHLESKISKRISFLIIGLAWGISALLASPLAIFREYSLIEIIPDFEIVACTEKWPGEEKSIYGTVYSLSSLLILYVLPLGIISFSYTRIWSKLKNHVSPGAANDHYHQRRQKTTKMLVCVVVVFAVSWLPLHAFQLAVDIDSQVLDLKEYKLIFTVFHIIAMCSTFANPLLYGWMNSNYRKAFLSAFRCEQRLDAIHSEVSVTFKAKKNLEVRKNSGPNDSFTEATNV

[10] = molecular target: Melanocortin receptor 5 (Homo sapiens, UniProt P33032); type: cell membranes, HEK293, Membrane; settings: hek293; further: in other assays of this panel Not Active means under 50% inhibition at 10 µM
Chain of Melanocortin receptor 5 (P33032 whole entry): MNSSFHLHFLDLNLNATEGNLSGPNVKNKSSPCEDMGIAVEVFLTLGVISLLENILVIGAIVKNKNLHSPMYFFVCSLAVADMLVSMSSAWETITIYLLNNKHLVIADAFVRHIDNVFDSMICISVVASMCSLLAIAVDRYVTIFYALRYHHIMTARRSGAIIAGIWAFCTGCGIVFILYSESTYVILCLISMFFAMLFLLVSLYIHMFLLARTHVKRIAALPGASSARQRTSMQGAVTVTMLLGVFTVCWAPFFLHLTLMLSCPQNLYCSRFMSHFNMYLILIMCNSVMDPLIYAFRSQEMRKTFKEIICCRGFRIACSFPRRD

[11] = molecular target: T3, Muscarinic acetylcholine receptor M2 (Homo sapiens, UniProt P08172); type: cell membranes, CHO-K1, Membrane; settings: cho-k1; further: in other assays of this panel Not Active means under 50% inhibition at 10 µM
T3 sequence (P08172 whole entry): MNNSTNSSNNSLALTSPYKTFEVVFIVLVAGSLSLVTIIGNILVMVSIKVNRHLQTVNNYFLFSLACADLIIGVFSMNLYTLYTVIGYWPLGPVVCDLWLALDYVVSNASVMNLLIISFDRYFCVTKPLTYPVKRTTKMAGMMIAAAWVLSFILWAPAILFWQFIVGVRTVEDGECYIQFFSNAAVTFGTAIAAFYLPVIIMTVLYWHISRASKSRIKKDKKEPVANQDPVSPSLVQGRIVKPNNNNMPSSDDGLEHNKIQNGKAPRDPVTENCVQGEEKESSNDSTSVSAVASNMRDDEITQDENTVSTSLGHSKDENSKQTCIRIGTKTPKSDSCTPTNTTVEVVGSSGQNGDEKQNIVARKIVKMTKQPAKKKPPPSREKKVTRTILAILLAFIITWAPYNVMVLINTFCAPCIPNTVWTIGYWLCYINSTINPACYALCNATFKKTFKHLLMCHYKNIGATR

[12] = molecular target: Protein kinase C alpha type (Homo sapiens, UniProt P17252); type: cell-based; settings: sf9
[13] = DRUGMATRIX: GABAA, Muscimol, Central radioligand binding (ligand: [3H] Muscimol); type: cell membranes, Rattus norvegicus, Wistar, Brain, Membrane; settings: Not Active = under 50% inhibition at 10 µM
[14] = molecular target: T4, Vasoactive intestinal polypeptide receptor 1 (Homo sapiens, UniProt P32241); type: cell membranes, Membrane; settings: ht-29; further: in other assays of this panel Not Active means under 50% inhibition at 10 µM
T4 sequence (P32241 whole entry): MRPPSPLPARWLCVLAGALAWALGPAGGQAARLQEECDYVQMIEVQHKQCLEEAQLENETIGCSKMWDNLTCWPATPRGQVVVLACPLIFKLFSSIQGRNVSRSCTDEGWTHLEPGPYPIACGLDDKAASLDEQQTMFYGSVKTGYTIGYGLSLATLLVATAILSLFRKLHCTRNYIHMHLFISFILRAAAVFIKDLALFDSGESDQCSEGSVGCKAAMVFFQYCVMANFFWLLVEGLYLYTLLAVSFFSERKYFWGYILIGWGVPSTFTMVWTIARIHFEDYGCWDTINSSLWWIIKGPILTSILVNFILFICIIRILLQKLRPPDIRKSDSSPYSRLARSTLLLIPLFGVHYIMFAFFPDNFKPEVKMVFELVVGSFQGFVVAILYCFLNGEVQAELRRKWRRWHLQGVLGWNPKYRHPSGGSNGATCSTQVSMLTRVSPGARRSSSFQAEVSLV

[15] = DRUGMATRIX: Glutamate, Kainate radioligand binding (ligand: [3H] Kainic acid); type: cell membranes, Rattus norvegicus, Wistar, Brain, Membrane; settings: Not Active = under 50% inhibition at 10 µM
[16] = DRUGMATRIX: Phorbol Ester radioligand binding (ligand: [3H] PDBu); type: cell membranes, Mus musculus, ICR, Brain, Membrane; settings: Not Active = under 50% inhibition at 10 µM
[17] = molecular target: 5-hydroxytryptamine receptor 1B (Rattus norvegicus, UniProt P28564); type: cell membranes, Wistar, Cerebral cortex, Membrane; further: in other assays of this panel Not Active means under 50% inhibition at 10 µM
Chain of 5-hydroxytryptamine receptor 1B (P28564 whole entry): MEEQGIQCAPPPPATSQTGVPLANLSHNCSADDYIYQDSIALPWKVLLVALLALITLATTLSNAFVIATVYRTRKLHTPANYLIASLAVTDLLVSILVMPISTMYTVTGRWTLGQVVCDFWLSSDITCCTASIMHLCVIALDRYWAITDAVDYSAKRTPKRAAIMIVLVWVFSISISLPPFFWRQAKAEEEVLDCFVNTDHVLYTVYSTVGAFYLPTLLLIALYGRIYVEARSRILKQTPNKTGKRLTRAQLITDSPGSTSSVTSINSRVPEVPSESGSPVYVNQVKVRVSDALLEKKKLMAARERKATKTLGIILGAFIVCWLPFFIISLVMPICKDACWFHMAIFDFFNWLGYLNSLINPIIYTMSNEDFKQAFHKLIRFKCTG

CN[C@H](CC(C)C)C(=O)N[C@H]1C(=O)N[C@@H](CC(N)=O)C(=O)N[C@H]2C(=O)N[C@H]3C(=O)N[C@H](C(=O)N[C@H](C(=O)O)c4cc(O)cc(O)c4-c4cc3ccc4O)[C@H](O)c3ccc(c(Cl)c3)Oc3cc2cc(c3O[C@@H]2O[C@H](CO)[C@@H](O)[C@H](O)[C@H]2O[C@H]2C[C@](C)(N)[C@H](O)[C@H](C)O2)Oc2ccc(cc2Cl)[C@H]1O [VANCOMYCIN]
Not Active: IC50 [1] | IC50 [2] | IC50 [3] | IC50 [4] | IC50 [5] | Ki [5] | IC50 [6] | IC50 [7] | Ki [7] | IC50 [8] | Ki [8] | IC50 [9] | IC50 [10] | IC50 [11] | IC50 [12] | IC50 [13] | Ki [13] | IC50 [14] | IC50 [15] | Ki [15] | IC50 [16] | Ki [16] | IC50 [17]

COc1ccc(C(CN(C)C)C2(O)CCCCC2)cc1 (stereo not drawn) [VENLAFAXINE]
Not Active: IC50 [1] | IC50 [2] | IC50 [3] | IC50 [4] | IC50 [5] | Ki [5] | IC50 [6] | IC50 [7] | Ki [7] | IC50 [8] | Ki [8] | IC50 [9] | IC50 [10] | IC50 [11] | IC50 [12] | IC50 [13] | Ki [13] | IC50 [14] | IC50 [15] | Ki [15] | IC50 [16] | Ki [16] | IC50 [17]

COC(=O)[C@@H]1[C@H]2C[C@H]3c4[nH]c5ccccc5c4CCN3C[C@@H]2CC[C@@H]1O [YOHIMBINE]
Not Active: IC50 [1] | IC50 [2] | IC50 [3] | IC50 [4] | IC50 [5] | Ki [5] | IC50 [6] | IC50 [7] | Ki [7] | IC50 [8] | Ki [8] | IC50 [9] | IC50 [10] | IC50 [11] | IC50 [12] | IC50 [13] | Ki [13] | IC50 [14] | IC50 [15] | Ki [15] | IC50 [16] | Ki [16] | IC50 [17]

IVERMECTIN
Not Active: IC50 [1] | Ki [1] | IC50 [2] | Ki [2] | IC50 [3] | Ki [3] | IC50 [4] | Ki [4] | IC50 [5] | Ki [5] | IC50 [6] | Ki [6] | IC50 [7] | Ki [7] | IC50 [8] | Ki [8] | IC50 [9] | Ki [9] | IC50 [10] | Ki [10] | IC50 [11] | Ki [11] | IC50 [12] | Ki [12] | IC50 [13] | Ki [13] | IC50 [14] | Ki [14] | IC50 [15] | Ki [15] | IC50 [16] | Ki [16] | IC50 [17] | Ki [17]

From ChEMBL document CHEMBL1909046, “DrugMatrix in vitro pharmacology data”
